The values below come from publication PMC9855884, “Glycosylated Lipopeptides—Synthesis and Evaluation of Antimicrobial Activity and Cytotoxicity” (Biomolecules, 2023).

A short description of series [1]: Determination of peptide hydrophobicity with RP-HPLC (adjusted retention time). As to conditions: RP-HPLC as measure of hydrophobicity; Waters X-Bridge Shield RP-18 3.0 × 100 mm, 3.5 μm; linear 20–80% acetonitrile in water over 30 min, 0.1% TFA; 0.5 mL/min; 25.0 °C; peptide 1 g/L in water (0.1% TFA); UV 214 nm; triplicate. It counts as physicochemical. As to the method: To determine peptide hydrophobicity, a Waters Alliance e2695 system with a Waters 2998 PDA Detector was used. All analyses were carried out on a Waters X-Bridge Shield RP-18 column (3.0 × 100 mm, 3.5 μm particle size, 130 Å pore size). The peptides were dissolved in water (0.1% TFA, v/v) up to a concentration of 1 g/L. UV detection at 214 nm was used, and samples (10 μL) were eluted with a linear 20–80% acetonitrile gradient in deionized water over 30 min at 25.0 ± 0.1 °C. The mobile phase flow rate was 0.5 mL/min. Both eluents contained 0.1% (v/v) of TFA. Each peptide sample was analyzed in triplicate. Maximum standard deviation and coefficient of variation were 0.046 and 0.23%, respectively.
After synthesis and purification, all the products were analyzed with MS and HPLC to confirm purity and identity of the compounds. […] The chromatographic analyses were performed with RP-HPLC; retention time refers to hydrophobicity of the lipopeptide.

Series [2] has as its system S. aureus ATCC 33591. It counts as cell-based, Staphylococcus aureus. The note with it: ATCC 33591, 18 h. As for the experimental part:
(§1) The Acinetobacter baumannii ATCC BAA-1605, Enterococcus faecium ATCC 700221, Klebsiella aerogenes ATCC 13048, Klebsiella pneumoniae ATCC 700603, Pseudomonas aeruginosa ATCC 9027, Staphylococcus aureus ATCC 33591, Candida glabrata ATCC 15126, strains were acquired from the American Type Culture Collection (ATCC). All the strains were stored at −80 °C in Roti-Store cryo vials and were transferred into fresh Mueller–Hinton broth (MHB, Becton Dickinson, Warsaw, Poland) for bacteria or RPMI-1640 (Sigma-Aldrich, Steinheim, Germany) for fungi before the tests and incubated for 24 h at 37 °C. Then, the cultures were seeded on the Mueller–Hinton agar (BioMaxima, Lublin, Poland) or Sabouraud dextrose agar (SDA, BioMaxima, Lublin, Poland) plates, respectively, and incubated as just mentioned. These agar cultures were used for further microbiological assays. Cell densities for all assays were adjusted spectrophotometrically (Multiskan GO Microplate Spectrophotometer, Thermo Fisher Scientific, Vantaa, Finland) at 600 and 530 nm for bacteria and fungi, respectively.
(§2) The MICs were determined using a broth microdilution method according to the Clinical and Laboratory Standard Institute guidelines. For this purpose, initial inoculums of bacteria (5 × 10^5 CFU/mL) in MHB and yeasts (2 × 10^3 CFU/mL) in RPMI-1640 with 2% D-glucose were exposed to the ranging concentration of lipopeptides (1–512 μg/mL) and incubated at 37 °C for 18 h and 24 h, respectively. The experiments were conducted on 96-well microtiter polystyrene plates (Kartell, Italy). The growth was assessed visually after incubation and the MIC was assumed as the lowest peptide concentration at which a noticeable growth of microorganisms was inhibited. All experiments were conducted in triplicate.

For series [3], the system named is K. pneumoniae ATCC 700603. It is filed as cell-based, Klebsiella pneumoniae. As to conditions: ATCC 700603, 18 h. As to the method: as §1, §2
Series [4] is described as follows: MTT assay, cytotoxicity. It counts as cell-based, human. As to conditions: human, HaCaT keratinocytes, 24 h incubation at 37 °C, 0.5–500 μg/mL, six replicates per concentration, repeated at least twice. As to the method: To evaluate the cytotoxicity of the test peptides (IC50), the classic MTT assay on 96-well plates was performed for human keratinocytes (HaCaT) which were acquired from the ATCC. The assay was based on colorimetric determination of the cell metabolic activity where the color intensity reflected the number of live cells that could be measured spectrophotometrically. The cell line was cultured in a Dulbecco’s modified Eagle Medium (Invitrogen) supplemented with 10% fetal bovine serum (v/v), 100 units/mL of penicillin, 100 μg/mL of streptomycin, and 2 mM L-glutamine and was kept at 37 °C in a humidified 5% CO2 incubator. Briefly, a day after plating of 500 cells per well, a series of concentrations (0.5–500 μg/mL) of the test compounds were applied. DMSO was added to the control cells at a final concentration of 1.0% (v/v), which was related to the maximum concentration of the solvent compounds used in the experiment. After 24 h of incubation at 37 °C (humidified 5% CO2 incubator) with the peptides, a medium containing 1 mg/mL of MTT was added to the wells up to a final concentration of 0.5 mg/mL. Subsequently, the plates were incubated at 37 °C for 4 h. Then, the medium was aspirated, and the formazan product was solubilized with DMSO. The background absorbance at 630 nm was subtracted from that at 570 nm for each well (Epoch, BioTek Instruments, Winooski, VT, USA). Six replicates were conducted for each concentration. All experiments were repeated at least twice and the resulting IC50 values were calculated with a GraFit 7 software (v. 7.0, Erithacus, Berkley, CA, USA).
The selectivity indexes were calculated for all the strains as IC50/MIC. According to IC50, in most cases, glycosylation caused only a slight decrease in toxicity. However, in contrast with SI calculated for HC50, the differences between USCLs and gUSCLs are not so distinct. […] Moreover, toxicity of USCLs and gUSCLs is high and exceeds their antimicrobial activity. The lipopetides were not selective against Gram-negative strains (K. pneumoniae, A. baumannii, P. aeruginosa, K. aerogenes) over human cells. A few USCLs were selective (SI > 1) against E. faecium and S. aureus with SI up to 1.87; and some gUSCLs were selective against E. faecium but not against S. aureus, with SI between 0.63 and 1.73. […] In this case, SI of gUSCLs was noticeably […] than that of corresponding parent USCLs (2.07, 1.99, 2.67 vs. 2.53, 2.36, 3.46, respectively). Selectivity indexes were plotted against adjusted retention time (Figures S15–S21). A moderate linear correlation was found in USCLs and K. pneumoniae, C. glabrata, and gUSCLs and K. pneumoniae, K. aerogenes (R^2 between 0.6064 and 0.6481). A relatively high linear correlation was obtained for USCLs and K. aerogenes (R^2 of 0.8214) and also for gUSCLs and C. glabrata (R^2 of 0.9223).
On the technique in general: Tetrazolium dyes change colour on reduction, which living cells bring about.

In brackets after ≈: the same amount, converted by molar mass. Where a SMILES comes first, the peptide text is derived from it. The star is where a group is joined. βGlcNAc = CC(=O)N[C@@H]1[C@@H](O)[C@H](O)[C@@H](CO)O[C@H]1*; Stearoyl = CCCCCCCCCCCCCCCCCC(=O)*; Palmitoyl = CCCCCCCCCCCCCCCC(=O)*; Myristoyl = CCCCCCCCCCCCCC(=O)* Bounds are passed on as bounds.

Consider `CCCCCCCCCCCCCCCC(=O)N[C@@H](CCCNC(=N)N)C(=O)N[C@@H](CCCNC(=N)N)C(=O)N[C@@H](CO[C@@H]1O[C@H](CO)[C@@H](O)[C@H](O)[C@H]1NC(C)=O)C(N)=O` [Peptide 15, C16-RRS(GlcNAc)-NH2] (Palmitoyl-Arg-Arg-Ser(βGlcNAc)-NH2), for which the “Adjusted Retention Time” value in series [1] turned out to be 18.80 min. Besides, the MIC in series [2] stood at 16 µg/mL (≈ 18.6 µM); in series [3] it was 256 µg/mL (≈ 298 µM). For the same compound, in series [4], half-maximal inhibition (IC50 at 24 h) was put at 5.16 ± 1.32 µg/mL (≈ 6.01 µM).

Turning to `CCCCCCCCCCCCCCCC(=O)N[C@@H](CO[C@@H]1O[C@H](CO)[C@@H](O)[C@H](O)[C@H]1NC(C)=O)C(=O)N[C@@H](CCCNC(=N)N)C(=O)N[C@@H](CCCNC(=N)N)C(N)=O` [Peptide 13, C16-S(GlcNAc)RR-NH2] (Palmitoyl-Ser(βGlcNAc)-Arg-Arg-NH2), the “Adjusted Retention Time” value in series [1] came out at 18.26 min. Moreover, the results for the MIC in series [2] and in series [3] were 16 µg/mL (≈ 18.6 µM) and 256 µg/mL (≈ 298 µM), respectively. In series [4], this compound registered an IC50 at 24 h of 10.6 ± 2.04 µg/mL (≈ 12.4 µM).

As to `CCCCCCCCCCCCCCCCCC(=O)N[C@@H](CO)C(=O)N[C@@H](CCCNC(=N)N)C(=O)N[C@@H](CCCNC(=N)N)C(N)=O` [Peptide 7, C18-SRR-NH2] (Stearoyl-Ser-Arg-Arg-NH2), the “Adjusted Retention Time” value in series [1] came out at 24.78 min. Further, the MIC in series [2] and in series [3] was 16 µg/mL (≈ 23.4 µM) throughout. This compound returned an IC50 at 24 h in series [4] of 8.28 ± 1.18 µg/mL (≈ 12.1 µM).

`CCCCCCCCCCCCCC(=O)N[C@@H](CCCNC(=N)N)C(=O)N[C@@H](CCCNC(=N)N)C(=O)N[C@@H](CO[C@@H]1O[C@H](CO)[C@@H](O)[C@H](O)[C@H]1NC(C)=O)C(N)=O` [Peptide 12, C14-RRS(GlcNAc)-NH2] (Myristoyl-Arg-Arg-Ser(βGlcNAc)-NH2): in series [1], the “Adjusted Retention Time” value was 15.01 min. Also, the MIC in series [2] is on record as 32 µg/mL (≈ 38.6 µM); in series [3], greater than 512 µg/mL. This compound displayed an IC50 at 24 h in series [4] of 20.5 ± 3.05 µg/mL (≈ 24.6 µM).

As usually defined, the MIC is the smallest concentration in the dilution series that meets the test's criterion for growth inhibition. Lower therefore signals a more susceptible organism. A word on the IC50: it is the concentration at which inhibition is half-maximal. The low end stands for inhibition by little substance, the high end for a need for much substance.
